Experimental findings from patent US10342796B2, “Acrylanilide derivative, preparation method, and applications thereof in pharmacy” (Ancureall Pharmaceutical (Shanghai) Co., Ltd., priority 2015, dated 2019) are described below.

Read-outs that look alike come from different tables or passages of the source. Some results are limits rather than exact numbers.

Assay [1] deals with H1975 (EGFR L858R/T790M). Nature of the assay: Growth inhibition GI50 in vitro (CCK8/MTT, 72 h). As to conditions: Homo sapiens, NCI-H1975; EGFR mutant cell line; range of GI50; read-out: GI50 H1975. The assay is classed as cell-based, human.
Assay [2] concerns HCC827 (EGFR dE746-A750). Nature of the assay: Growth inhibition GI50 in vitro (CCK8/MTT, 72 h). The assay is classed as cell-based, human. As to conditions: Homo sapiens, HCC827; EGFR mutant cell line; range of GI50; read-out: GI50 HCC827.
Assay [3] has as its system PC-9 (EGFR dE746-A750). Description: Growth inhibition GI50 in vitro (CCK8/MTT, 72 h). The assay is classed as cell-based, human. As to conditions: Homo sapiens; EGFR mutant cell line; range of GI50; read-out: GI50 PC-9.
The subject of assay [4] is PC-9ER (EGFR delE746-A750/T790M). Nature of the assay: Growth inhibition GI50 in vitro (CCK8/MTT, 72 h). The assay is classed as cell-based, human. As to conditions: Homo sapiens, PC-9/ER; EGFR mutant cell line; range of GI50; read-out: GI50 PC9ER.
Assay [5] concerns N87 (HER2 Amp). Description: Growth inhibition GI50 in vitro (CCK8/MTT, 72 h). The conditions noted are these: Homo sapiens. The assay is classed as cell-based, human.
Assay [6] relates to AU565 (Her2 amp). Nature of the assay: Growth inhibition GI50 in vitro (CCK8/MTT, 72 h). Type of assay: cell-based, human. As to conditions: Homo sapiens, AU565; HER2 positive cell line; range of GI50; read-out: GI50 AU-565.
Assay [7] has as its system SK-BR-3 (Her2 amp). Nature of the assay: Growth inhibition GI50 in vitro (CCK8/MTT, 72 h). The assay is classed as cell-based, human. As to conditions: Homo sapiens, SK-BR-3; HER2 positive cell line; range of GI50; read-out: GI50 SK-BR-3.
Assay [8] relates to A431 (EGFR WT, amplification and high expression). Description: Growth inhibition GI50 in vitro (CCK8/MTT, 72 h). The assay is classed as cell-based, human. The conditions noted are these: Homo sapiens, A-431; EGFR wild type cell line; range of GI50; read-out: GI50 A431.
In assay [9] the test system is A549 (EGFR WT). Description: Growth inhibition GI50 in vitro (CCK8/MTT, 72 h). The assay is classed as cell-based, human. The conditions noted are these: Homo sapiens, A549; EGFR wild type cell line; range of GI50; read-out: GI50 A549.
Assay [10] concerns H1299 (EGFR wt, Nras Q61K). Description: Growth inhibition GI50 in vitro (CCK8/MTT, 72 h). Type of assay: cell-based, human. The conditions noted are these: Homo sapiens, NCI-H1299; EGFR wild type cell line; range of GI50; read-out: GI50 H1299.
For assay [11], the system named is H460 (EGFR wt, Kras G61H). Nature of the assay: Growth inhibition GI50 in vitro (CCK8/MTT, 72 h). Type of assay: cell-based, human. The conditions noted are these: Homo sapiens, NCI-H460; EGFR wild type cell line; range of GI50; read-out: GI50 H460.
Assay [12] deals with H1975 tumor cells. Nature of the assay: In vivo tumor growth inhibition, xenograft. Details: species or system Bab/c nude mice. As to conditions: Mus musculus, NCI-H1975, po, 456 h; 25 mg/kg intragastric once daily, day 19; read-out: TGI (%) H1975. An excerpt:
(§1) Tumor xenograft models of immunodeficient mice are an effective tool to test the antitumor activity of the compound in vivo. Generally, the effectiveness of human tumor cell xenograft is positively correlated with the clinical treatment of human tumor. Bab/c immunodeficient mouse is one of the most commonly used xenograft animals with human tumor cells. In order to test whether the present compounds can inhibit the in vivo growth of the tumor cells expressing EGFR mutantion or HER2/ErbB2 overexpression, H1975, PC-9 and NCI-N87 cell lines were used in the experiments. When H1975, PC-9 and NCI-N87 cells were in growth logarithmic phase, they were digested with pancreatin. An appropriate amount of 1×RPMI1640 culture medium (serum-free) was added to stop digestion. The cells were collected to a 50 ml centrifuge tube (Corning), and centrifuged at 1700 rm for 3 min. The supernatant was discard, then the cells were suspended with 1×RPMI1640 culture medium and count the number. […] cells/mL was prepared and then placed on ice. 5˜10×10^6 (0.2 ml) cells were inoculated subcutaneously on the right side of the back of 6˜8 week old female Bab/c nude mice (about 20 g in weight). When the tumor average volume growed to 100˜200 mm^3, the mice were randomly divide into groups (3-6 mice per group), and marked by ear pierced tags and weighted. The test compounds and the reference compound (with a purity over 99% and individual impurity not higher than 0.2%) were formulated to emulsion suspension with CM (30% polyethylene glycol 400, 0.5% Tween-80 and 2.5% propylene glycol) respectively. Intragastric administration was continued once daily at a dosage of 25 mg/kg (0.1 ml/10 g mouse). The tumor was measured 3 times per week. When the average volume of the tumor in CM control group was up to 1500 mm^3 or after administration for 30 days, the experiment was ended.
(§2) The volume of tumor (V) was calculated as V=½*a*b^2 (a represents length of tumors, b represents width of tumors). Tumor growth inhibition (TGI) was calculated as: TGI (%)=100−(VT−VT0)/(VC−VC0)*100%; where VT0 and VT are the tumor volumes of the beginning and finish days of dosed groups; and VC0 and VC are the tumor volumes of the beginning and finish days for the control group, respectively.

In assay [13] the test system is PC-9 tumor cells. Nature of the assay: In vivo tumor growth inhibition, xenograft. The conditions noted are these: Mus musculus, po, 456 h; 25 mg/kg intragastric once daily, day 19; read-out: TGI (%) PC-9. Details: species or system Bab/c nude mice.
Text: as §1, §2

For assay [14], the system named is Calu-3 (Her2 amp). Nature of the assay: Growth inhibition GI50 in vitro (CCK8/MTT, 72 h). Type of assay: cell-based. The conditions noted are these: Homo sapiens, Calu-3; Table 16; 1000 nM to 0.03 nM serial dilution; read-out: GI50 Calu3 (HER2 amp). The procedure: (§3) Human lung adenocarcinoma cell line Calu-3 (ATCC) was cultured with 1×MEM complete medium (10% FBS, 1% double-antibiotics, 1% NEAA (Gibco), 2 mM glutamine and 1 mM of sodium pyruvate). Human breast cancer cell line SK-BR-3 was cultured with McCOY'S5A complete medium (10% FBS). Human colon cancer cell line SNU1040 (HER2 V777M positive) (ATCC) and human bronchoalveolar adenocarcinoma cell line NCI-H1781 (expressing HER2 exon 20 G776VC mutation) (ATCC) were cultured with 1×RPMI1640 complete medium (10% FBS), respectively.
(§4) The suspension cells were collected by centrifugation. The supernatant was discard and the cell pellet was resuspended and counted. Different cell concentrations (5˜10×10^4 cells/mL) were prepared according to the growth cycle of each cell line and then seeded on a 96-well plate (Corning), 100 μL/well. The cells were incubated over night at 37° C., 5% CO2. The compounds were added to the cells on the second day with 2 wells in parallel. The final concentration of organic solvent shall not exceed 1%. The cells were continually incubated for 72 h, and then subjected to MTT assay.
(§5) The present compounds and the reference compounds were dissolved with DMSO (Sigma), respectively. […] The storage concentration of compounds was 10 mM and kept at −20° C. They were diluted by 2 times or 10 times with serial dilution before using.
(§6) Dojindo CCK8 reagent kit was used as MTT assay. […] FC meter was used as microplate reader.
Adherent cell culture medium was discard and immediately replaced with fresh prepared medium which contains 10% CCK8 reagent (100 μL/well). For the suspension cells, CCK8 was directly added to 10% of the final concentration. The cells were continually incubated for 1˜4 h. When the color of control wells turned to dark yellow, the absorption value was measured at OD450 nm. The cell growth rate was calculated according to the following formula: cell growth rate (%)=100*(T−T0)/(C−T0), T=optical density of drug treatment cell well—optical density of blank control well; T0=optical density of cell well before drug treatment—optical density of blank control well; C=optical density of cell well of solvent control group—optical density of blank control well. […] The experiment was independently repeated 1˜3 times, and subject to biological statistical analysis.

Assay [15] relates to NCI-H1781 (HER2 exon 20 G776VC mutation). Nature of the assay: Growth inhibition GI50 in vitro (CCK8/MTT, 72 h). Type of assay: cell-based. The conditions noted are these: Homo sapiens, NCI-H1781; Table 16; 1000 nM to 0.03 nM serial dilution; read-out: GI50 H1781 (HER2 G776VC). The protocol: as §3
as §4, with “Adherent cells were digested with 0.25% pancreatin-EDTA (Gibco). The suspension” for “The suspension”
as §5, §6
(§7) Adherent cell culture medium was discard and immediately replaced with fresh prepared medium which contains 10% CCK8 reagent (100 μL/well). For the suspension cells, CCK8 was directly added to 10% of the final concentration. The cells were continually incubated for 1˜4 h. When the color of control wells turned to dark yellow, the absorption value was measured at OD450 nm. The cell growth rate was calculated according to the following formula: cell growth rate (%)=100*(T−T0)/(C−T0), T=optical density of drug treatment cell well—optical density of blank control well; T0=optical density of cell well before drug treatment—optical density of blank control well; C=optical density of cell well of solvent control group—optical density of blank control well. The concentration value of 50% inhibition of cell growth (GI50) was calculated. The experiment was independently repeated 1˜3 times, and subject to biological statistical analysis.
(§8) Furthermore, the present compounds (99, 136, 205, 211, 212, 213, 216, 229, 230, 231, 232, 233 and 236) were selected to carry out growth inhibition test for HER2/ERBB2 gene amplified or high expressed or mutant tumor cells. Afatinib and AZD9291 were used for references as second- and third-generation inhibitors of EGFR.
(§9) Each compound started at 1000 nM as an initial concentration and was diluted by 2 times with serial dilution to 0.03 nM. The GI50 value of each compound was calculated according to Test Example 1.3.

Assay [16] deals with SNU1040 (HER2 V777M positive). Description: Growth inhibition GI50 in vitro (CCK8/MTT, 72 h). The assay is classed as cell-based. As to conditions: Homo sapiens; Table 16; 1000 nM to 0.03 nM serial dilution; read-out: GI50 SNU-1040 (HER2 V777M). The protocol:
as §3
as §4, with “Adherent cells were digested with 0.25% pancreatin-EDTA (Gibco). The suspension” for “The suspension”
as §5, §6, §7, §8, §9

For assay [17], the system named is HER2/ErbB2 amplified cell line N87. Nature of the assay: In vivo tumor growth inhibition, xenograft. As to conditions: Mus musculus, po, 456 h, 25 mg/kg intragastric once daily, day 19, read-out: TGI (%). Details: species or system Bab/c nude mice.
Text: as §1, §2

Take `C=CC(=O)Nc1cc(Nc2cc(-c3cn(C)c4ccccc34)ncn2)c(OC)cc1N1CCC(N2CCN(C)CC2)CC1` [Compound 176, N-(4-methoxyl-5-(6-(1-methyl-1H-indol-3-yl)-pyrimidin-4-ylamino)-2-(4-(4-methylpiperazin-1-yl)-piperidin-1-yl)-phenyl)-acrylamide]: the GI50 (as a rule, the concentration at which growth is held to half of that of the control) was 10 to 100 nM in [1]; < 10 nM in assay [2]; < 10 nM in [3]; 10 to 100 nM in assay [4]; 10 to 100 nM in assay [5] (HER2 positive cell line, range of GI50, read-out: GI50 N87); 100 to 1000 nM in assay [6]. Also, the concentration for 50% growth inhibition (GI50) in assay [7] is 10 to 100 nM; in assay [8] it was 100 to 1000 nM; in assay [9] it was > 1000 nM; in assay [10], > 1000 nM; in assay [11], > 1000 nM. Moreover, the inhibition in vivo at 25 mg/kg was 98.2% in assay [12] and 98.6% in [13].

As to `CN(C)C/C=C/C(=O)Nc1cc2c(Nc3ccc(F)c(Cl)c3)ncnc2cc1O[C@H]1CCOC1` [Afatinib, reference compound], the GI50 was found to be 1.25 nM in assay [5] (Table 16, 1000 nM to 0.03 nM serial dilution, read-out: GI50 N87 (HER2 amp)); 2.62 nM in assay [14]; 1.17 nM in assay [15]; 79.1 nM in assay [16]. Also, the inhibition in vivo at 25 mg/kg in [17] was 98.3%.
